Experimental data reported in paper PMC7822874, “Chemoprotective antimalarials identified through quantitative high-throughput screening of Plasmodium blood and liver stage parasites” (Scientific Reports, 2021).
Read-outs that look alike come from different tables or passages of the source.

Experiments:
[1] = test system: T1, Plasmodium falciparum Dd2-attB (parental line), asexual blood stages; assay: microbe, parasite or virus in culture; set-up: species or system P. falciparum Dd2-attB in human erythrocytes; SYBR Green-I proliferation assay, Dd2-attB parental line, asexual blood stages; settings: Plasmodium falciparum, DD2, Erythrocyte, 72 h, read-out: Calculated / Average Log AC50 (M), mean of replicates, 72 h (converted)
T1 construct: Dd2-attB, the isogenic parental line

[2] = in vitro; settings: human, HepG2-A16-CD81EGFP cells, uninfected
[3] = test system: luciferase-expressing P. berghei liver stage parasites in HepG2 cells; assay: Inhibition of liver-stage development assay (ILSDA), Method 2 (WRAIR, 96-well); format: cell-based, Plasmodium berghei; settings: for Max Resp (signal direction of the dose response): Method 2, Decrease = decreasing P. berghei viability with dose, Increase = increasing signal, Inactive = no dose response; for AC50: Plasmodium berghei, HepG2, Method 2; for Activity direction (Decrease / Inactive): P. berghei liver stage, Method 2, dose response
[4] = test system: Plasmodium falciparum Dd2 asexual blood stage parasites; assay: microbe, parasite or virus in culture; set-up: species or system Plasmodium falciparum Dd2 in human erythrocytes; single determination (one 11-point concentration-response curve); settings: Plasmodium falciparum, DD2, Erythrocyte, 72 h; read-out: AC50
[5] = in vitro; settings: human, n = 1
[6] = test system: P. berghei-ANKA-GFP-LucCON liver stage parasites in HepG2-A16-CD81EGFP cells; assay: P. berghei liver stage Pb-Luc assay, Method 1 (UCSD, 1536-well); format: cell-based, Plasmodium berghei; settings: for Max Resp (signal direction of the dose response): Decrease = decreasing P. berghei viability with dose, Increase = increasing signal, Inactive = no dose response; for activity at 1 µM / activity at 3 µM: 48 h
[7] = test system: HepG2-A16-CD81EGFP cells; settings: average of 2 wells; for HepG2 viability signal, 3 uM, repeat 2: nominal 3 uM (10 mM stock), 4.5 uM for 15 mM, 3.6 uM for 12 mM, 6 uM for 20 mM stock
[8] = Hill fit, 50% of maximum activity response, read-out: AC50
[9] = log10 of molar AC50 from Hill fit, read-out: Log AC50 (converted)
[10] = Plasmodium berghei, nominal 1 uM (10 mM stock), […] for 15 mM, 1.2 uM for 12 mM, 2 uM for 20 mM stock, average of 2 wells, 1536-well plate, repeat 1, read-out: Pb-Luc signal, 1 uM, repeat 1
[11] = Plasmodium berghei, nominal 1 uM (10 mM stock), […] for 15 mM, 1.2 uM for 12 mM, 2 uM for 20 mM stock, average of 2 wells, 1536-well plate, repeat 2, read-out: Pb-Luc signal, 1 uM, repeat 2
[12] = Plasmodium berghei, nominal 1 uM (10 mM stock), […] for 15 mM, 1.2 uM for 12 mM, 2 uM for 20 mM stock, average of 2 wells, 1536-well plate, repeat 3, read-out: Pb-Luc signal, 1 uM, repeat 3
[13] = Plasmodium berghei, nominal 3 uM (10 mM stock), 4.5 uM for 15 mM, 3.6 uM for 12 mM, 6 uM for 20 mM stock, average of 2 wells, 1536-well plate, repeat 1, read-out: Pb-Luc signal, 3 uM, repeat 1
[14] = Plasmodium berghei, nominal 3 uM (10 mM stock), 4.5 uM for 15 mM, 3.6 uM for 12 mM, 6 uM for 20 mM stock, average of 2 wells, 1536-well plate, repeat 2, read-out: Pb-Luc signal, 3 uM, repeat 2
[15] = Plasmodium berghei, nominal 3 uM (10 mM stock), 4.5 uM for 15 mM, 3.6 uM for 12 mM, 6 uM for 20 mM stock, average of 2 wells, 1536-well plate, repeat 3, read-out: Pb-Luc signal, 3 uM, repeat 3
[16] = Plasmodium berghei, Method 1, Hill fit, 50% of maximum activity response, read-out: AC50
[17] = Plasmodium berghei, Method 1, log10 of molar AC50 from Hill fit, read-out: Log AC50 (converted)
[18] = nominal 1 uM (10 mM stock), […] for 15 mM, 1.2 uM for 12 mM, 2 uM for 20 mM stock
[19] = Plasmodium berghei, 1 uM (compounds provided at 10 mM), average of 2 wells on a 1536 well plate, column 11, read-out: Pb-Luc (P. berghei liver stage), % of control, lower concentration, first repeat
[20] = Plasmodium berghei, 1 uM (compounds provided at 10 mM), average of 2 wells on a 1536 well plate, column 12, read-out: Pb-Luc (P. berghei liver stage), % of control, lower concentration, second repeat
[21] = Plasmodium berghei, 3 uM (compounds provided at 10 mM), average of 2 wells on a 1536 well plate, column 8, read-out: Pb-Luc (P. berghei liver stage), % of control, higher concentration, first repeat
[22] = Plasmodium berghei, 3 uM (compounds provided at 10 mM), average of 2 wells on a 1536 well plate, column 9, read-out: Pb-Luc (P. berghei liver stage), % of control, higher concentration, second repeat

O=C(O)c1ccc(O)c2ncc(-c3cccc(N4CCOCC4)c3)cc12 [NCGC00241753-01]
AC50 [1]: 2.16e-05 M

CN1CCCC1CCOC(c1cccc(-c2ccccc2)c1)c1cc2nccc(C(=O)O)c2s1 (stereo not shown) [NCGC00481397-01]
AC50 [1]: 1.42e-05 M

O=C(O)c1ccnc2cc(C(OCCN3CCC(F)(F)CC3)c3ccccc3Cl)[nH]c12 (stereo not shown) [NCGC00414992-02]
AC50 [1]: 1.53e-05 M

O=C(NC(c1ccccc1)c1cc(Cl)c2cccnc2c1O)c1cccnc1 (stereo not shown) [MLS000573359-01]
viability at 48 h, 1 µM [2]: 119% | viability at 48 h, 3 µM [2]: 66% | Max Resp (signal direction of the dose response) [3]: Decrease | AC50 [3, 8]: 1.12 µM | AC50 [3, 9]: 1.12 µM | AC50 [4]: 7.5 µM | CC50 at 48 h ([5]; HepG2 cells): 13.7 µM

Cc1nn2c(c1-c1ccccc1-c1ccccc1)N(CCC(C)C)CCC2 [NCGC00420437-01]
viability at 48 h, 1 µM [2]: 104% | viability at 48 h, 3 µM [2]: 10.8% | Max Resp (signal direction of the dose response) ([6]; Method 1): Decrease | AC50 ([6]; Method 1, Hill fit, 50% of maximum activity response, read-out: AC50): 1.12 µM | Log AC50 (M) ([6]; Method 1, log10 of molar AC50 from Hill fit): -5.950 M | activity at 1 µM [6, 10]: 19.7% | activity at 1 µM [6, 11]: 20.4% | activity at 1 µM [6, 12]: 5.15% | activity at 3 µM [6, 13]: 4.48% | activity at 3 µM [6, 14]: 7.19% | activity at 3 µM [6, 15]: 3.33% | AC50 [6, 16]: 1 µM | AC50 [6, 17]: 1 µM | Activity direction (Decrease / Inactive) [3]: Inactive | HepG2 viability signal, 1 uM, repeat 2 [7, 18]: 106.23% | HepG2 viability signal, 3 uM, repeat 2 [7]: 19.77% | AC50 [4]: 0.243 µM | CC50 at 48 h ([5]; HepG2 cells): 19.8 µM

O=c1cc(CSc2ccc(Cl)cc2)nc(-c2ccccn2)[nH]1 [MLS001166297-01]
viability at 48 h, 1 µM [2]: 92% | viability at 48 h, 3 µM [2]: 73% | activity at 1 µM [6, 19]: 17% | activity at 1 µM [6, 20]: 15% | activity at 3 µM [6, 21]: 8% | activity at 3 µM [6, 22]: 5% | Max Resp (signal direction of the dose response) [3]: Inactive | AC50 [4]: 5.96 µM | CC50 at 48 h ([5]; HepG2 cells): 12.2 µM

CC1=C[C@@H](CNCc2cccnc2)[C@H](C(C)C)C[C@H]1Cc1nnc(-c2ccc([N+](=O)[O-])cc2)o1 [NCGC00394797-01]
activity at 1 µM [6, 10]: 72% | activity at 1 µM [6, 11]: 75% | activity at 1 µM [6, 12]: 71.6% | activity at 3 µM [6, 13]: 23.8% | activity at 3 µM [6, 14]: 19.3% | activity at 3 µM [6, 15]: 23.7% | AC50 [6, 16]: 1.58 µM | AC50 [6, 17]: 1.58 µM | Max Resp (signal direction of the dose response) [3]: Decrease | AC50 [3, 8]: 0.562 µM | AC50 [3, 9]: 0.562 µM | HepG2 viability signal, 1 uM, repeat 1 ([7]; nominal 1 uM (10 mM stock), […] for 15 mM, 1.2 uM for 12 mM, 2 uM for 20 mM stock, repeat 1): 104.31% | HepG2 viability signal, 1 uM, repeat 2 [7, 18]: 102.23% | HepG2 viability signal, 3 uM, repeat 2 [7]: 86.98% | AC50 [4]: 5.31 µM | CC50 at 48 h ([5]; hepg2): 24.3 µM

Cc1nc2ccc(NC(=O)c3cc(S(=O)(=O)N(C)c4ccccc4)ccc3Cl)cc2s1 [MLS000393823-01]
activity at 1 µM ([6]; Plasmodium berghei, P. berghei liver stage, 1 µM compound treatment (10 mM stocks), replicate 1, normalized, average of 2 wells on a 1536 well plate, read-out: PbLuc 1uM growth rep1): 19% | activity at 1 µM ([6]; Plasmodium berghei, P. berghei liver stage, 1 µM compound treatment (10 mM stocks), replicate 2, normalized, average of 2 wells on a 1536 well plate, read-out: PbLuc 1uM growth rep2): 15% | activity at 3 µM ([6]; Plasmodium berghei, P. berghei liver stage, 3 µM compound treatment (10 mM stocks), replicate 1, normalized, average of 2 wells on a 1536 well plate, read-out: PbLuc 3uM growth rep1): 3.66% | activity at 3 µM ([6]; Plasmodium berghei, P. berghei liver stage, 3 µM compound treatment (10 mM stocks), replicate 2, normalized, average of 2 wells on a 1536 well plate, read-out: PbLuc 3uM growth rep2): 5.53% | Max Resp (signal direction of the dose response) [3]: Decrease | AC50 [3, 8]: 0.501 µM | AC50 [3, 9]: 0.501 µM | HepG2 1uM growth rep1 ([7]; HepG2, 1 µM compound treatment (10 mM stocks), replicate 1, normalized): 61% | HepG2 1uM growth rep2 ([7]; HepG2, 1 µM compound treatment (10 mM stocks), replicate 2, normalized): 56% | HepG2 3uM growth rep1 ([7]; HepG2, 3 µM compound treatment (10 mM stocks), replicate 1, normalized): 59% | HepG2 3uM growth rep2 ([7]; HepG2, 3 µM compound treatment (10 mM stocks), replicate 2, normalized): 60% | AC50 [4]: 0.841 µM | CC50 at 48 h ([5]; HepG2 cells): 9.68 µM

Cc1nn2c(c1-c1ccccc1-c1ccccc1)N(CC1CC1)CCC2 [NCGC00420435-01]
viability at 48 h, 1 µM [2]: 102% | viability at 48 h, 3 µM [2]: 53.6% | activity at 1 µM [6, 10]: 52.9% | activity at 1 µM [6, 11]: 51.5% | activity at 1 µM [6, 12]: 66.1% | activity at 3 µM [6, 13]: 2.42% | activity at 3 µM [6, 14]: 7.19% | activity at 3 µM [6, 15]: 5.92% | AC50 [6, 16]: 1.58 µM | AC50 [6, 17]: 1.58 µM | Activity direction (Decrease / Inactive) [3]: Inactive | HepG2 viability signal, 1 uM, repeat 2 [7, 18]: 101.46% | HepG2 viability signal, 3 uM, repeat 2 [7]: 45.92% | AC50 [4]: 0.968 µM | CC50 at 48 h ([5]; HepG2 cells): 22.2 µM

O=C(Nc1ccccc1O)c1ccc(NC(=O)C2CC2)cc1 [MLS001162082-01]
viability at 48 h, 1 µM [2]: 114% | viability at 48 h, 3 µM [2]: 108% | activity at 1 µM [6, 19]: 40% | activity at 1 µM [6, 20]: 37% | activity at 3 µM [6, 21]: 10% | activity at 3 µM [6, 22]: 10% | Max Resp (signal direction of the dose response) [3]: Decrease | AC50 [3, 8]: 2.24 µM | AC50 [3, 9]: 2.24 µM | AC50 [4]: 4.73 µM | CC50 at 48 h ([5]; HepG2 cells): 10.9 µM

CC(C)c1ccc(CC(=O)N2CCCc3ncc(C(=O)Nc4cccnc4)cc32)cc1 [NCGC00420003-01]
viability at 48 h, 1 µM [2]: 99% | viability at 48 h, 3 µM [2]: 35.6% | Max Resp (signal direction of the dose response) ([6]; Method 1): Inactive | activity at 1 µM [6, 10]: 24.7% | activity at 1 µM [6, 11]: 4.89% | activity at 1 µM [6, 12]: 35.4% | activity at 3 µM [6, 13]: 3.66% | activity at 3 µM [6, 14]: 2.01% | activity at 3 µM [6, 15]: 4.19% | Activity direction (Decrease / Inactive) [3]: Inactive | HepG2 viability signal, 1 uM, repeat 2 [7, 18]: 94.19% | HepG2 viability signal, 3 uM, repeat 2 [7]: 54.54% | AC50 [4]: 0.863 µM | CC50 at 48 h ([5]; HepG2 cells): 19.8 µM
